Experimental data taken from US10131652B2, “Pyrimidinyloxy benzene derivatives as herbicides” (E. I. DU PONT DE NEMOURS AND COMPANY, priority 2014, dated 2018).

Columns and labels:
Type in all cases: in vivo
[1] = tested on: barnyardgrass (Echinochloa crus-galli); assay: Test B pre-/postemergence plant response
Procedure, shortened: (§1)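 Ratings reflect visual injury versus untreated controls, from 0 for no effect to 100 for complete control, assessed roughly 10 days after treatment. Formulation: non-phytotoxic solvent mix with surfactant; pre- and postemergence sprays on plants grown in loam soil and sand.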

corn (Zea mays) [2] = assay: Test B pre-/postemergence plant response
Procedure, shortened: as §1

[3] = tested on: giant foxtail (Setaria faberii); assay: Test B pre-/postemergence plant response
Procedure, shortened: as §1

[4] = tested on: pigweed (Amaranthus retroflexus); assay: Test B pre-/postemergence plant response
Procedure, shortened: as §1

[5] = tested on: wheat (Triticum aestivum); assay: Test B pre-/postemergence plant response
Procedure, shortened: as §1

[6] = tested on: Italian ryegrass (Lolium multiflorum); assay: Test D pre-/postemergence plant response; details: Postemergence
Procedure, shortened: (§2)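 Sown seed (loam/sand soil) treated preemergence; emerged plants, 1- to 4-leaf stage and 2 to 18 cm, treated postemergence in peat/vermiculite medium. Greenhouse incubation 13–15 d. Endpoint: visual 0–100 rating versus untreated.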

corn (Zea mays) [7] = assay: Test D pre-/postemergence plant response; details: Postemergence; for Plant response rating, Corn: scale 0 to 100, 0 no effect, 100 complete control
Procedure, shortened: as §2

[8] = tested on: galium (catchweed bedstraw, Galium aparine); assay: Test D pre-/postemergence plant response; details: Postemergence; for Plant response rating, Galium: scale 0 to 100, 0 no effect, 100 complete control
Procedure, shortened: as §2

[9] = tested on: lambsquarters (Chenopodium album); assay: Test D pre-/postemergence plant response; details: Postemergence
Procedure, shortened: as §2

[10] = tested on: large (Lg) crabgrass (Digitaria sanguinalis); assay: Test D pre-/postemergence plant response; details: Postemergence; for Plant response rating, Crabgrass, Large: scale 0 to 100, 0 no effect, 100 complete control
Procedure, shortened: as §2

[11] = tested on: morningglory (Ipomoea coccinea); assay: Test D pre-/postemergence plant response; details: Postemergence
Procedure, shortened: as §2

[12] = tested on: ragweed (common ragweed, Ambrosia elatior); assay: Test D pre-/postemergence plant response; details: Postemergence
Procedure, shortened: as §2

soybean (Glycine max) = assay: Test D pre-/postemergence plant response; details: Postemergence
Procedure, shortened: as §2

[13] = tested on: waterhemp (common waterhemp, Amaranthus rudis); assay: Test D pre-/postemergence plant response; details: Postemergence
Procedure, shortened: as §2

[14] = tested on: winter wheat (Triticum aestivum); assay: Test D pre-/postemergence plant response; details: Postemergence
Procedure, shortened: as §2

[15] = tested on: yellow nutsedge (Cyperus esculentus); assay: Test D pre-/postemergence plant response; details: Postemergence
Procedure, shortened: as §2

[16] = 31 g ai/ha, Preemergence, 0 to 100 scale where 0 is no effect and 100 is complete control
[17] = 125 g ai/ha, postemergence, 0 to 100 scale, 0 no effect, 100 complete control
[18] = Postemergence, 31 g ai/ha, 0 to 100 scale (0 no effect, 100 complete control)
[19] = Preemergence, 125 g ai/ha, 0 to 100 scale (0 no effect, 100 complete control)
[20] = 31 g ai/ha, scale 0 to 100 (0 no effect, 100 complete control)
[21] = 62 g ai/ha, scale 0 to 100, 0 no effect, 100 complete control
[22] = 125 g ai/ha, scale 0 to 100, 0 no effect, 100 complete control

Fc1ccc(Oc2ncc(Cl)cn2)c(-c2cc(C(F)(Cl)Cl)on2)c1 [Compound 221]
65: Plant response rating (scale 0 to 100), Morningglory ([11]; 16 g ai/ha) | Morningglory plant response rating [11, 20]
70: Plant response rating (scale 0 to 100), Waterhemp ([13]; 16 g ai/ha)
85: Plant response rating (scale 0 to 100), Lambsquarters ([9]; 16 g ai/ha) | Plant response rating, Morningglory [11, 22] | Soybean plant response rating (soybean (Glycine max); [21]) | Waterhemp plant response rating [13, 20]
95: Lambsquarters plant response rating [9, 20] | Lambsquarters plant response rating [9, 21]
20: Plant response rating, Barnyardgrass [1, 16] | Plant response rating, Corn (corn (Zea mays) [2]; [18]) | Plant response rating, Wheat [5, 18] | Ryegrass, Italian plant response rating [6, 21]
0: Plant response rating (scale 0 to 100), Corn (corn (Zea mays) [7]; 16 g ai/ha) | Corn plant response rating (corn (Zea mays) [7]; [20]) | Plant response rating (scale 0 to 100), Wheat ([14]; 16 g ai/ha) | Wheat plant response rating [14, 20] | Plant response rating, Wheat [14, 22]
98: Plant response rating, Lambsquarters [9, 22]
10: Plant response rating, Barnyardgrass [1, 18] | Plant response rating, Foxtail, Giant [3, 18] | Plant response rating, Ryegrass, Italian [6, 22] | Plant response rating, Corn (corn (Zea mays) [7]; 125 g ai/ha) | Plant response rating (scale 0 to 100), Crabgrass, Large ([10]; 16 g ai/ha) | Crabgrass, Large plant response rating [10, 20] | Plant response rating, Nutsedge, Yellow [15, 22]
100: Plant response rating, Pigweed [4, 16] | Pigweed plant response rating [4, 19] | Plant response rating, Galium ([8]; 62 g ai/ha) | Plant response rating, Galium ([8]; 125 g ai/ha) | Waterhemp plant response rating [13, 21] | Plant response rating, Waterhemp [13, 22]
90: Plant response rating, Barnyardgrass [1, 17] | Barnyardgrass plant response rating [1, 19] | Plant response rating, Foxtail, Giant [3, 17] | Foxtail, Giant plant response rating [3, 19] | Plant response rating, Pigweed [4, 17] | Plant response rating, Pigweed [4, 18] | Plant response rating, Soybean (soybean (Glycine max); [22])
50: Plant response rating, Corn (corn (Zea mays) [2]; [17]) | Plant response rating, Foxtail, Giant [3, 16] | Ragweed plant response rating [12, 20]
80: Plant response rating (scale 0 to 100), Galium ([8]; 16 g ai/ha) | Galium plant response rating [8, 20] | Morningglory plant response rating [11, 21]
5: Plant response rating (scale 0 to 100), Ryegrass, Italian ([6]; 16 g ai/ha) | Ryegrass, Italian plant response rating [6, 20] | Plant response rating, Corn (corn (Zea mays) [7]; 62 g ai/ha) | Wheat plant response rating [14, 21] | Plant response rating (scale 0 to 100), Nutsedge, Yellow ([15]; 16 g ai/ha) | Nutsedge, Yellow plant response rating [15, 20] | Nutsedge, Yellow plant response rating [15, 21]
25: Plant response rating, Crabgrass, Large ([10]; 62 g ai/ha) | Soybean plant response rating (soybean (Glycine max); [20])
45: Ragweed plant response rating [12, 21]
75: Plant response rating, Ragweed [12, 22]
30: Plant response rating, Wheat [5, 17] | Plant response rating, Crabgrass, Large ([10]; 125 g ai/ha)
35: Plant response rating (scale 0 to 100), Ragweed ([12]; 16 g ai/ha) | Plant response rating (scale 0 to 100), Soybean (soybean (Glycine max); 16 g ai/ha)
